Legend:
[1] = tested on: unfolded protein response (Xbp-1 splicing); assay: Xbp-1 splicing / ER stress response in activated T cells
[2] = tested on: T cell-mediated inflammation; settings: oxazolone-induced; cited from earlier work
[3] = tested on: CD4+ CD25− T cells; assay: CD4+ T cell proliferation, CD25 upregulation, cytokine production, Th1/Th2/iTreg differentiation; assay type: cell-based, mouse; settings: for concentration causing general inhibition of T and B cell activation, proliferation and effector function: CD4+ T cells, CD8+ T cells, B220+ B cells
Procedure: The dose-response of HF on CD4+ T cell proliferation, activation (i.e. CD25 upregulation) and differentiation to Th1, Th2 and Th17 lineages were evaluated. Purified murine naïve CD4+ CD25− T cells were activated using anti-CD3 (0.3 μg/ml) and anti-CD28 (0.5 μg/ml) antibodies and varying amounts of HF was added to each T cell culture condition (1.25 nM-40 nM). CD4+ T cell proliferation was monitored by CFSE dilution on day 3-post activation and CD25 expression was evaluated by FACS staining 2 days after activation. For T cell differentiation experiments, naïve T cells were activated as above in the presence of Th1 (IL-12 (20 ng/ml) plus anti-IL-4 (1.5 μg/ml)), Th2 (IL-4 (50 ng/ml) plus anti-IFNγ (0.5 mg/ml)) or Th17 (TGFβ (3 ng/ml) plus IL-6 (30 ng/ml)) polarizing conditions plus titrating amounts of HF (1.25 nM-40 nM) or MAZ1310 (40 nM). The percentage of Th17 cells, (IL-17^+ IFNγ^−) was evaluated on day 3 following activation, whereas the abundance of Th1 cells (IFNγ^+ IL-4) and Th2 cells (IL-4^+ IFNγ^−) was determined 5 days following activation. All cytokine expression was determined by intracellular staining following PMA+Ionomycin+Brefeldin A re-stimulation and all data was normalized to control (MAZ1310)-treated cells. […] Biol., vol. 80:1-8 (2006).
Cytokines, antibodies and T cell culture: Purified CD4^+ CD25^− T cells were activated in vitro as previously described (I. M. Djuretic et al., Nat Immunol 8, 145 (2007)) using 0.3 μg/ml hamster anti-mouse CD3 (clone 145-2C11) (ATCC—Manassas, Va.) and 0.5 μg/ml hamster anti-mouse CD28 (BD Pharmingen, San Jose, Calif.). Activated cell cultures were differentiated using the following combinations of cytokines and antibodies: iTreg=recombinant human TGFβ1 (3 ng/ml; R&D systems, Minneapolis, Minn.), Th17=TGFβ1 (3 ng/ml) plus recombinant mouse IL-6 (30 ng/ml, R&D systems). Th1 and Th2 differentiation was performed as previously described. (I. M. Djuretic et al., Nat Immunol 8, 145 (2007)). Human IL-2 supernatant (National Cancer Institute) was used in culture at 0.01 U/ml and was added at 48 hours-post activation when T cells were split into tissue culture wells lacking CD3 and CD28 antibodies, with the exception of Th17 cultures that were maintained in the absence of IL-2. All reagents were added at the time of T cell activation and again at 48-hours post activation unless indicated otherwise. For some experiments, purified CD4^+ CD25^− T cells, CD8^+ T cells or B cells were labeled with 1 μM CFSE (Invitrogen) prior to activation in accordance with manufacturers instructions.
Detection of cytokine production: Cytokines secreted into media supernatant were measured using the mouse Th1/Th2 cytometric bead array (CBA, BD Pharmingen) in accordance with manufacturers instructions. Briefly, CD4^+ CD25^− T cells were activated in anti-CD3/anti-CD28-coated tissue culture wells and supernatants were collected at the indicated times. For detection of intracellular cytokines in murine cells, cultured T or B cells were stimulated with 10 nM PMA (Sigma) and […] (Sigma) for 4-5 hours in the presence of […] (Sigma). Stimulated cells were harvested, washed with PBS and fixed with PBS plus 4% paraformaldehyde at room temperature for 20 minutes. […]

[4] = tested on: fibrosis; settings: in vitro; cited from earlier work
[5] = tested on: amino acid response (AAR) pathway; assay: eIF2α phosphorylation and ATF4 protein in T cells (immunoblot); assay type: cell-based, mouse
Procedure: Whole cell lysates were prepared 4 hours-post TCR activation and immunoblotting was performed with the indicated antibodies. ATF4 protein is indicated by arrowhead. NS—non-specific band.
FIG. 12E is an illustration depicting immunoblot analysis of purified CD4^+ CD25^− T cells activated through the TCR for the indicated times without exogenous cytokines in the presence of either 10 nM MAZ1310 or 10 nM HF as indicated. Whole cells lysates were prepared during the timecourse and immunoblotting was performed.
Cultures were further supplemented with either 10 nM MAZ1310 or 10 nM HF as indicated. Whole cell lysates were generated 4 hours after activation and immunoblotting was performed. Microarray data were generated from triplicate samples and all other data are representative of at least 2 similar experiments.
Western blotting: Whole cell lysates were generated from T cells activated for the indicated times. For STAT3 and Smad2/3 western blots cells were harvested, washed in PBS and lysed in 50 mM Tris, pH 7.4, 0.1% SDS, 1% Triton-×100, 140 mM NaCl, 1 mM EDTA, 1 mM EGTA supplemented with protease inhibitors tablets (Roche—Germany), 1 mM NaF and 1 mM Na3VO4. For eIF2α and ATF4 western blots, cells were harvested as above and lysed in 50 mM Tris, pH 7.4, 2% SDS, 20% glycerol and 2 mM EDTA supplemented with protease and phosphatase inhibitors as above. All lysates were cleared via centrifugation and 15-30 μg of protein was resolved by SDS-PAGE. Protein was transferred to nitrocellulose membranes, blocked and blotted using specific antibodies. Antibodies used for western blot analysis were anti-phospho-Smad2, anti-STAT3 (pY705), anti-STAT3, anti-eIF2α^pS51, anti-eIF2α, anti-GCN2^pT898, anti-GCN2 (all from cell signaling technology, Danvers, Mass.). Anti-ATF4/CREB2 and anti-β-actin were purchased from Santa Cruz biotechnology (Santa Cruz, Calif.). HRP-conjugated secondary antibodies were all purchased from Sigma, with the exception of HRP-conjugated anti-armenian hamster antibody (Jackson Immunoresearch—West Grove, Pa.).

O=C(CC1NCCCC1O)Cn1cnc2cc(Br)c(Cl)cc2c1=O (racemic) [HF, 7-bromo-6-chloro-3-[3-(3-hydroxy-2-piperidinyl)-2-oxopropyl]-4(3H)-quinazolinone]
expression of hallmark ER stress response genes (GRP78/BiP, calreticulin and others) [1]: did not induce
Xbp-1 splicing ([1]; tunicamycin 1 μg/ml or 10 nM HF, 4 hours): without promoting Xbp-1 splicing
T cell-mediated inflammation (delayed-type hypersensitivity) [2]: inhibits this T cell-mediated inflammation
concentration causing general inhibition of T and B cell activation, proliferation and effector function [3]: > 20 nM
concentration causing general inhibition of T and B cell activation, proliferation and effector function ([3]; listed as halofuginone): 20 to 40 nM
T cell proliferation, CD25 upregulation or production of IL-2, TNF or IFNγ ([3]; low concentrations of HF (1-10 nM)): did not affect
Th1, Th2 or iTreg differentiation (IFNγ, IL-4 or Foxp3 expression) ([3]; low-dose HF): failed to modulate
concentrations at which HF acts as an inhibitor of fibrosis [4]: 1 to 200 nM
time at which eIF2α phosphorylation reached maximum levels ([5]; 10 nM HF): ≤ 2 h
time until which ATF4 protein continued to accumulate ([5]; 10 nM HF): 4 h
eIF2α phosphorylation in resting naïve T cells and T cells in Th17, ThN, Th1, Th2 and iTreg conditions ([5]; 10 nM HF, 4 hours): induced eIF2α phosphorylation
induction of ATF4 expression by T cell state ([5]; 10 nM HF, 4 hours): in all differentiated T cells but not in naïve T cells
HF concentration at which eIF2α phosphorylation plateaued ([5]; 4 hours-post TCR activation): 5 to 10 nM
HF concentration inducing detectable eIF2α phosphorylation ([5]; 4 hours-post TCR activation): 2.5 nM
HF concentration with highest ATF4 expression levels ([5]; 4 hours-post TCR activation): 5 to 10 nM
HF concentration with reduced ATF4 expression ([5]; 4 hours-post TCR activation): 20 to 40 nM

— US20090123389A1, “Methods for modulating Th17 cell development in the treatment and prevention of cellulite” (priority 2007, published 2009)
